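Results reflect a 48-hour exposure of cells in 96-well plates to compound at five concentrations. At the GI50, growth is halved.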 Calls of active or inactive are those of the source. Cut-off read from the data, not from the text of the source: active = GI50 up to about 1.1 µM and inactive = higher. Where a SMILES comes first, the peptide text is derived from it. Bridges are numbered along the chain shown (N, C = ends). The star is where a group is joined. Cbz = O=C(OCc1ccccc1)*
Experiments:
Experiment in all cases: NCI tumour cell line growth inhibition, 48 h
SW-620 = tested on: SW-620
OVCAR-5 = tested on: OVCAR-5
OVCAR-4 = tested on: OVCAR-4
CAKI-1 = tested on: CAKI-1
UACC-62 = tested on: UACC-62
EKVX = tested on: EKVX
NCI-H522 = tested on: NCI-H522
SR = tested on: SR
UACC-257 = tested on: UACC-257
HOP-62 = tested on: HOP-62
SN12C = tested on: SN12C
SK-OV-3 = tested on: SK-OV-3
NCI-H23 = tested on: NCI-H23
SNB-19 = tested on: SNB-19
RXF 393 = tested on: RXF 393
Malme-3M = tested on: Malme-3M
HT-29 = tested on: HT-29

Measured: GI50

Cc1cc2c(SCc3ccccc3Cl)nc(N)nc2nc1C
inactive: SW-620 > 100 µM | OVCAR-5 > 100 µM | OVCAR-4 > 100 µM | CAKI-1 > 100 µM | UACC-62 > 100 µM | EKVX > 100 µM | NCI-H522 21.4 µM | SR > 100 µM | UACC-257 > 100 µM | HOP-62 > 100 µM | SN12C > 100 µM | SK-OV-3 > 100 µM | NCI-H23 > 100 µM | SNB-19 > 100 µM | RXF 393 > 100 µM | Malme-3M > 100 µM | HT-29 > 100 µM

O=C1NC(N2CCOCC2)=N/C1=C\c1ccc(O)cc1
inactive: SW-620 > 100 µM | OVCAR-5 > 100 µM | OVCAR-4 > 100 µM | CAKI-1 > 100 µM | UACC-62 > 100 µM | EKVX > 100 µM | NCI-H522 16.4 µM | SR > 100 µM | UACC-257 > 100 µM | HOP-62 > 100 µM | SN12C > 100 µM | SK-OV-3 > 100 µM | NCI-H23 > 100 µM | SNB-19 > 100 µM | RXF 393 > 100 µM | Malme-3M > 100 µM | HT-29 > 100 µM

COc1cc2c(cc1O)C(=O)O[C@@H]1CC=C3CCN(C)[C@H]3[C@H]21
inactive: SW-620 > 25 µM | OVCAR-5 > 25 µM | OVCAR-4 > 25 µM | CAKI-1 > 25 µM | UACC-62 > 25 µM | EKVX > 25 µM | NCI-H522 > 25 µM | SR > 25 µM | UACC-257 > 25 µM | HOP-62 > 25 µM | SN12C > 25 µM | SK-OV-3 > 25 µM | NCI-H23 > 25 µM | SNB-19 > 25 µM | RXF 393 > 25 µM | Malme-3M > 25 µM | HT-29 > 25 µM

CCOC(=O)/C(=C\c1cccc(C)c1)C(C)=O
inactive: SW-620 12.5 µM | OVCAR-5 10.9 µM | OVCAR-4 19.2 µM | CAKI-1 20.9 µM | UACC-62 16.5 µM | EKVX 48 µM | NCI-H522 10 µM | SR 3.44 µM | UACC-257 14.3 µM | HOP-62 24.5 µM | SN12C 17.1 µM | SK-OV-3 25.8 µM | NCI-H23 17 µM | SNB-19 17.7 µM | RXF 393 11.5 µM | Malme-3M 14.1 µM | HT-29 17.9 µM

COc1cc(/C=N\O)cc(/C=N/O)c1O
inactive: SW-620 73.1 µM | OVCAR-5 44.3 µM | OVCAR-4 > 100 µM | CAKI-1 28.6 µM | UACC-62 68.1 µM | EKVX 60.3 µM | NCI-H522 75.9 µM | SR 26.3 µM | UACC-257 74 µM | HOP-62 21.9 µM | SN12C 31 µM | SK-OV-3 30.3 µM | NCI-H23 > 100 µM | SNB-19 47.6 µM | RXF 393 23.6 µM | Malme-3M 27.7 µM | HT-29 39.4 µM

N#Cc1c(=O)c2cc([N+](=O)[O-])ccc2n2c1[nH]c1ccccc12
inactive: SW-620 8.71 µM | OVCAR-5 6 µM | OVCAR-4 3.38 µM | CAKI-1 6.84 µM | UACC-62 4.59 µM | EKVX 23.1 µM | NCI-H522 2.18 µM | SR 10.7 µM | UACC-257 7.46 µM | HOP-62 9.55 µM | SN12C 9.93 µM | SK-OV-3 5.79 µM | NCI-H23 3.19 µM | SNB-19 5.41 µM | RXF 393 3.55 µM | Malme-3M 8.89 µM | HT-29 8.09 µM

CCCCCCCCC[C@@H]1C[C@@H]2CCC3C(C(=O)OC)=C(C)N=C(N1)N32 (some centres undefined)
inactive: SW-620 15.6 µM | OVCAR-5 18 µM | OVCAR-4 6.93 µM | CAKI-1 17.3 µM | UACC-62 4.52 µM | EKVX 10.5 µM | NCI-H522 2.96 µM | SR 3.91 µM | UACC-257 10.5 µM | HOP-62 6.17 µM | SN12C 14.6 µM | SK-OV-3 10.6 µM | NCI-H23 3.85 µM | SNB-19 4.18 µM | RXF 393 2.64 µM | Malme-3M 10.5 µM | HT-29 4.25 µM

N#Cc1c(-c2ccc([N+](=O)[O-])cc2)cc(-c2ccc(Nc3ccnc4cc(C(F)(F)F)ccc34)cc2)nc1N
inactive: SW-620 8.3 µM | OVCAR-5 30.9 µM | OVCAR-4 7.6 µM | CAKI-1 18.5 µM | UACC-62 62.4 µM | EKVX 36.1 µM | NCI-H522 17.2 µM | SR 1.79 µM | UACC-257 > 50 µM | HOP-62 21.3 µM | SN12C 17.9 µM | SK-OV-3 24 µM | NCI-H23 23.2 µM | SNB-19 18.6 µM | RXF 393 19.1 µM | Malme-3M 30.3 µM | HT-29 5.13 µM

COC(=O)C12CCCN1CCC2
inactive: SW-620 > 100 µM | OVCAR-5 > 100 µM | OVCAR-4 > 100 µM | CAKI-1 > 100 µM | UACC-62 > 100 µM | EKVX > 100 µM | NCI-H522 > 100 µM | SR > 100 µM | UACC-257 > 100 µM | HOP-62 > 100 µM | SN12C > 100 µM | SK-OV-3 > 100 µM | NCI-H23 > 100 µM | SNB-19 > 100 µM | RXF 393 > 100 µM | Malme-3M > 100 µM | HT-29 > 100 µM

O=C(OC1C=C=CS(=O)(=O)CC#C/C=C\1)c1cnc2ccccc2n1 (centres undefined)
inactive: SW-620 40.8 µM | OVCAR-5 > 100 µM | OVCAR-4 > 100 µM | CAKI-1 > 100 µM | UACC-62 26.4 µM | EKVX 97.3 µM | NCI-H522 25.7 µM | SR 68.9 µM | UACC-257 > 100 µM | HOP-62 > 100 µM | SN12C > 100 µM | SK-OV-3 > 100 µM | NCI-H23 83.6 µM | SNB-19 > 100 µM | RXF 393 > 100 µM | Malme-3M > 100 µM | HT-29 > 100 µM

COC(=O)C1CCCCNC(=O)CCC(NC(=O)OCc2ccccc2)C(=O)N1 (stereo not drawn) (Cbz-Glu-Lys-OMe; lactam 1-2; configuration not given here)
inactive: SW-620 > 100 µM | OVCAR-5 > 100 µM | OVCAR-4 > 100 µM | CAKI-1 > 100 µM | UACC-62 > 100 µM | EKVX > 100 µM | NCI-H522 > 100 µM | SR > 100 µM | UACC-257 > 100 µM | HOP-62 38.7 µM | SN12C > 100 µM | SK-OV-3 56.1 µM | NCI-H23 > 100 µM | SNB-19 66.7 µM | RXF 393 25.5 µM | Malme-3M > 100 µM | HT-29 > 100 µM

c1ccc2c(Cc3c[nH]c4ccccc34)c[nH]c2c1 [ARUNDINE]
inactive: SW-620 20.1 µM | OVCAR-5 14.2 µM | OVCAR-4 17.8 µM | CAKI-1 15.9 µM | UACC-62 > 100 µM | EKVX 14.4 µM | NCI-H522 30.5 µM | SR 12.4 µM | UACC-257 18.5 µM | HOP-62 17.7 µM | SN12C 16.6 µM | SK-OV-3 23.7 µM | NCI-H23 13.3 µM | SNB-19 21.7 µM | RXF 393 15.6 µM | Malme-3M 31.3 µM | HT-29 15.2 µM

Source: ChEMBL document CHEMBL1201862, “PubChem BioAssay data set” (2004)
